Assay results reported in ChEMBL document CHEMBL3864146, “5-Alkyloxytryptamines are membrane-targeting, broad-spectrum antibiotics” (Bioorg Med Chem Lett, 2016).

Tests used:
[1] = system: Pseudomonas aeruginosa; assay: Adjuvant activity assessed as potentiation of rifampicin-induced antibacterial activity against Pseudomonas aeruginosa at 21 ug/ml after 16 to 18 hrs by checkerboard assay (reference value: 16 ug/ml); format: functional
[2] = system: Klebsiella pneumoniae; assay: Adjuvant activity assessed as potentiation of rifampicin-induced antibacterial activity against Klebsiella pneumoniae at 21 ug/ml after 16 to 18 hrs by checkerboard assay (reference value: 16 ug/ml); format: functional
[3] = Cytotoxicity against HEK cells assessed as cell viability at 21 ug/ml after 24 hrs by CellTiter-Glo assay relative to control; format: toxicity, cell-based, HEK293; details: human, read-out: Activity
[4] = system: Acinetobacter baumannii; assay: Antibacterial activity against Acinetobacter baumannii after 16 to 18 hrs by micro-dilution method; format: functional
[5] = Cytotoxicity against HEK cells assessed as cell viability at 10.5 ug/ml after 24 hrs by CellTiter-Glo assay relative to control; format: toxicity, cell-based, HEK293; details: human, read-out: Activity
[6] = system: Escherichia coli; assay: Induction of membrane permeabilization in Escherichia coli BW25113 at MIC after 15 mins by propidium iodide staining-based fluorescence microplate reader method relative to 50% ethanol; format: functional
[7] = system: Morganella morganii; assay: Antibacterial activity against Morganella morganii after 16 to 18 hrs by micro-dilution method; format: functional
[8] = Cytotoxicity against HEK cells assessed as cell viability at 10.5 ug/ml after 48 hrs by CellTiter-Glo assay relative to control; format: toxicity, cell-based, HEK293; details: human, read-out: Activity
[9] = system: Staphylococcus aureus; assay: Adjuvant activity assessed as potentiation of rifampicin-induced antibacterial activity against Staphylococcus aureus at 21 ug/ml after 16 to 18 hrs by checkerboard assay (reference value: 0.004 ug/ml); format: functional
[10] = system: Bacillus subtilis; assay: Antibacterial activity against Bacillus subtilis 168 after 16 to 18 hrs by micro-dilution method; format: functional; details: subsp. subtilis str. 168
[11] = system: Escherichia coli; assay: Adjuvant activity assessed as potentiation of ciprofloxacin-induced antibacterial activity against Escherichia coli BW25113 at 0.5 times MIC after 16 to 18 hrs by checkerboard assay (reference value: 13 ng/ml); format: functional
[12] = system: Pseudomonas aeruginosa; assay: Antibacterial activity against Pseudomonas aeruginosa after 16 to 18 hrs by micro-dilution method; format: functional
[13] = Cytotoxicity against HEK cells assessed as cell viability at 21 ug/ml after 48 hrs by CellTiter-Glo assay relative to control; format: toxicity, cell-based, HEK293; details: human, read-out: Activity
[14] = system: Klebsiella pneumoniae; assay: Antibacterial activity against Klebsiella pneumoniae after 16 to 18 hrs by micro-dilution method; format: functional
[15] = system: Escherichia coli; assay: Antibacterial activity against Escherichia coli BW25113 after 16 to 18 hrs by micro-dilution method; format: functional
[16] = system: Edwardsiella tarda; assay: Antibacterial activity against Edwardsiella tarda after 16 to 18 hrs by micro-dilution method; format: functional
[17] = system: Escherichia coli; assay: Adjuvant activity assessed as potentiation of chloramphenicol-induced antibacterial activity against Escherichia coli BW25113 at 0.5 times MIC after 16 to 18 hrs by checkerboard assay (reference value: 8 ng/ml); format: functional
[18] = system: Escherichia coli; assay: Adjuvant activity assessed as potentiation of ciprofloxacin-induced antibacterial activity against Escherichia coli BW25113 at 0.25 times MIC after 16 to 18 hrs by checkerboard assay (reference value: 13 ng/ml); format: functional
[19] = system: Shigella boydii; assay: Antibacterial activity against Shigella boydii after 16 to 18 hrs by micro-dilution method; format: functional
[20] = Cytotoxicity against HEK cells assessed as cell viability at 5.3 ug/ml after 24 hrs by CellTiter-Glo assay relative to control; format: toxicity, cell-based, HEK293; details: human, read-out: Activity
[21] = system: Escherichia coli; assay: Adjuvant activity assessed as potentiation of tetracycline-induced antibacterial activity against Escherichia coli BW25113 at 0.25 times MIC after 16 to 18 hrs by checkerboard assay (reference value: 2 ng/ml); format: functional
[22] = system: Escherichia coli; assay: Antibacterial activity against tolC-deficient Escherichia coli BW25113 after 16 to 18 hrs by micro-dilution method; format: functional
[23] = system: Escherichia coli; assay: Adjuvant activity assessed as potentiation of rifampicin-induced antibacterial activity against Escherichia coli BW25113 at 0.25 times MIC after 16 to 18 hrs by checkerboard assay (reference value: 8 ng/ml); format: functional
[24] = system: Escherichia coli; assay: Adjuvant activity assessed as potentiation of chloramphenicol-induced antibacterial activity against Escherichia coli BW25113 at 0.25 times MIC after 16 to 18 hrs by checkerboard assay (reference value: 8 ng/ml); format: functional
[25] = Cytotoxicity against HEK cells assessed as cell viability at 5.3 ug/ml after 48 hrs by CellTiter-Glo assay relative to control; format: toxicity, cell-based, HEK293; details: human, read-out: Activity
[26] = system: Klebsiella aerogenes; assay: Antibacterial activity against Enterobacter aerogenes after 16 to 18 hrs by micro-dilution method; format: functional
[27] = system: Salmonella typhimurium; assay: Antibacterial activity against Salmonella typhimurium after 16 to 18 hrs by micro-dilution method; format: functional, Salmonella enterica subsp. enterica serovar Typhimurium; details: Salmonella enterica
[28] = system: Staphylococcus aureus; assay: Antibacterial activity against Staphylococcus aureus after 16 to 18 hrs by micro-dilution method; format: functional
[29] = system: Vibrio cholerae; assay: Antibacterial activity against Vibrio cholerae after 16 to 18 hrs by micro-dilution method; format: functional
[30] = system: Acinetobacter baumannii; assay: Adjuvant activity assessed as potentiation of rifampicin-induced antibacterial activity against Acinetobacter baumannii at 21 ug/ml after 16 to 18 hrs by checkerboard assay (reference value: 2 ug/ml); format: functional
[31] = system: Salmonella typhimurium; assay: Adjuvant activity assessed as potentiation of rifampicin-induced antibacterial activity against Salmonella typhimurium at 21 ug/ml after 16 to 18 hrs by checkerboard assay (reference value: 8 ug/ml); format: functional, Salmonella enterica subsp. enterica serovar Typhimurium; details: Salmonella enterica
[32] = system: Escherichia coli; assay: Adjuvant activity assessed as potentiation of rifampicin-induced antibacterial activity against Escherichia coli BW25113 at 0.5 times MIC after 16 to 18 hrs by checkerboard assay (reference value: 8 ng/ml); format: functional
[33] = system: Escherichia coli; assay: Adjuvant activity assessed as potentiation of tetracycline-induced antibacterial activity against Escherichia coli BW25113 at 0.5 times MIC after 16 to 18 hrs by checkerboard assay (reference value: 2 ng/ml); format: functional
[34] = Cytotoxicity against HEK cells assessed as cell viability at 3.2 ug/ml after 48 hrs by CellTiter-Glo assay relative to control; format: toxicity, cell-based, HEK293; details: human, read-out: Activity
[35] = Cytotoxicity against HEK cells assessed as cell viability at 1.6 ug/ml after 24 hrs by CellTiter-Glo assay relative to control; format: toxicity, cell-based, HEK293; details: human, read-out: Activity
[36] = system: Salmonella typhimurium; assay: Adjuvant activity assessed as potentiation of tetracycline-induced antibacterial activity against Salmonella typhimurium at 3.2 ug/ml after 16 to 18 hrs by checkerboard assay (reference value: 1 ug/ml); format: functional, Salmonella enterica subsp. enterica serovar Typhimurium; details: Salmonella enterica
[37] = Cytotoxicity against HEK cells assessed as cell viability at 0.8 ug/ml after 24 hrs by CellTiter-Glo assay relative to control; format: toxicity, cell-based, HEK293; details: human, read-out: Activity
[38] = system: Pseudomonas aeruginosa; assay: Adjuvant activity assessed as potentiation of tetracycline-induced antibacterial activity against Pseudomonas aeruginosa at 3.2 ug/ml after 16 to 18 hrs by checkerboard assay (reference value: 32 ug/ml); format: functional
[39] = Cytotoxicity against HEK cells assessed as cell viability at 0.8 ug/ml after 48 hrs by CellTiter-Glo assay relative to control; format: toxicity, cell-based, HEK293; details: human, read-out: Activity
[40] = Cytotoxicity against HEK cells assessed as cell viability at 3.2 ug/ml after 24 hrs by CellTiter-Glo assay relative to control; format: toxicity, cell-based, HEK293; details: human, read-out: Activity
[41] = system: Staphylococcus aureus; assay: Adjuvant activity assessed as potentiation of tetracycline-induced antibacterial activity against Staphylococcus aureus at 1.6 ug/ml after 16 to 18 hrs by checkerboard assay (reference value: 0.125 ug/ml); format: functional
[42] = system: Klebsiella pneumoniae; assay: Adjuvant activity assessed as potentiation of tetracycline-induced antibacterial activity against Klebsiella pneumoniae at 3.2 ug/ml after 16 to 18 hrs by checkerboard assay (reference value: 2 ug/ml); format: functional
[43] = Cytotoxicity against HEK cells assessed as cell viability at 1.6 ug/ml after 48 hrs by CellTiter-Glo assay relative to control; format: toxicity, cell-based, HEK293; details: human, read-out: Activity
[44] = system: Acinetobacter baumannii; assay: Adjuvant activity assessed as potentiation of tetracycline-induced antibacterial activity against Acinetobacter baumannii at 3.2 ug/ml after 16 to 18 hrs by checkerboard assay (reference value: 1 ug/ml); format: functional

CCCCCCOc1ccc2[nH]cc(CCN)c2c1.Cl
MIC [1]: 16 µg/mL | MIC [2]: 8 µg/mL | viability at 24 h, 21 ug/ml [3]: 0% | MIC [4]: 42 µg/mL | viability at 24 h, 10.5 ug/ml [5]: 0.1% | Activity [6]: 34% | MIC [7]: > 83 µg/mL | viability at 48 h, 10.5 ug/ml [8]: 0% | MIC [9]: 0.004 µg/mL | MIC [10]: 42 µg/mL | MIC [11]: 0.013 µg/mL | MIC [12]: > 83 µg/mL | viability at 48 h, 21 ug/ml [13]: 0% | MIC [14]: 42 µg/mL | MIC [15]: 42 µg/mL | MIC [16]: 42 µg/mL | MIC [17]: 0.004 µg/mL | MIC [18]: 0.013 µg/mL | MIC [19]: 42 µg/mL | viability at 24 h, 5.3 ug/ml [20]: 0.4% | MIC [21]: 0.002 µg/mL | MIC [22]: 42 µg/mL | MIC [23]: 0.004 µg/mL | MIC [24]: 0.004 µg/mL | viability at 48 h, 5.3 ug/ml [25]: 0.1% | MIC [26]: 42 µg/mL | MIC [27]: 42 µg/mL | MIC [28]: 42 µg/mL | MIC [29]: 42 µg/mL | MIC [30]: 0.016 µg/mL | MIC [31]: 0.5 µg/mL | MIC [32]: 0.001 µg/mL | MIC [33]: 0.001 µg/mL

CCCCCCCCCCOc1ccc2[nH]cc(CCN)c2c1.Cl
viability at 48 h, 3.2 ug/ml [34]: 2% | viability at 24 h, 1.6 ug/ml [35]: 29.6% | MIC [4]: 6.3 µg/mL | MIC [36]: 0.016 µg/mL | Activity [6]: 83% | viability at 24 h, 0.8 ug/ml [37]: 59.7% | MIC [7]: 101 µg/mL | MIC [38]: 16 µg/mL | MIC [10]: 1.6 µg/mL | MIC [11]: 0.013 µg/mL | MIC [12]: > 101 µg/mL | MIC [14]: 6.3 µg/mL | MIC [15]: 6.3 µg/mL | viability at 48 h, 0.8 ug/ml [39]: 39.1% | MIC [16]: 25 µg/mL | MIC [17]: 0.002 µg/mL | MIC [18]: 0.013 µg/mL | MIC [19]: 3.2 µg/mL | MIC [21]: 0.001 µg/mL | MIC [22]: 3.2 µg/mL | viability at 24 h, 3.2 ug/ml [40]: 13.4% | MIC [23]: 0.008 µg/mL | MIC [41]: 0.001 µg/mL | MIC [24]: 0.004 µg/mL | MIC [42]: 2 µg/mL | MIC [26]: 13 µg/mL | MIC [27]: 6.3 µg/mL | MIC [28]: 3.2 to 6.3 µg/mL | viability at 48 h, 1.6 ug/ml [43]: 17% | MIC [29]: 6.3 µg/mL | MIC [32]: 0.001 µg/mL | MIC [44]: 0.25 µg/mL | MIC [33]: 0.00025 µg/mL
